# Measurements published in ChEMBL document CHEMBL1201862, “PubChem BioAssay data set” (2004).
# Activity calls are given as the source filed them.
# How the values were obtained:
# Genome polyprotein = Genome polyprotein (Hepatitis C virus, UniProt Q2Q167); assay: HCV core protein dimerization inhibitors, dose response, biochemical, TR-FRET (AID 2159); set-up: species or system Hepacivirus hominis;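 further: blocks dimerization of HCV core protein measured by TR-FRET between tagged core106 pairs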
# Genome polyprotein, sequence (Q2Q167 whole entry): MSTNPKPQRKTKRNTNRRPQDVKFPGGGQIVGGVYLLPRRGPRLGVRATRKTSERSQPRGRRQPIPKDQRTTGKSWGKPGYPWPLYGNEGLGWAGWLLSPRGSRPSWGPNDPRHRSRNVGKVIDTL
# [1] = M. tuberculosis growth inhibition, HTS (AID 449762); assay type: functional
# HeLa = assay: HeLa cell cytotoxicity, dose response, cytotoxicity control for MITF activator project, CellTiter-Glo luminescence, cherry-pick samples (AID 540259); assay type: functional, cell-based; details: Homo sapiens
# [2] = A cytotoxicity screen of small molecule inhibitors of the PhoP region in Salmonella typhi identified in the primary screen. [Related pubchem assays: 1850, 1864, 1985 ]; assay type: functional
# [3] = target: T1, Carboxy-terminal domain RNA polymerase II polypeptide A small phosphatase 1 (Homo sapiens, UniProt Q9GZU7); assay: inhibitors of CTDSP1, concentration-response testing, biochemical assay, absorbance-based, actives from ultra-high-throughput screening (AID 540297); assay type: functional
# T1 sequence (Q9GZU7 whole entry): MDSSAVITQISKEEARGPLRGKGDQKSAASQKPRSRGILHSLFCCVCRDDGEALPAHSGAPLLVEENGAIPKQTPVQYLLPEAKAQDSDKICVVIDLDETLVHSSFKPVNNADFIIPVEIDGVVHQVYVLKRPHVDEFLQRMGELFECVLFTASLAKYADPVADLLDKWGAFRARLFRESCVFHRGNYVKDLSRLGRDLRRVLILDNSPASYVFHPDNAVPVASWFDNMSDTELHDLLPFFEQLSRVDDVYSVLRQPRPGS
# ELAV-like protein 1 = ELAV-like protein 1 (Homo sapiens, UniProt Q15717); assay: Identify HuR specific inhibitors.; assay type: functional
# ELAV-like protein 1, sequence (Q15717 whole entry): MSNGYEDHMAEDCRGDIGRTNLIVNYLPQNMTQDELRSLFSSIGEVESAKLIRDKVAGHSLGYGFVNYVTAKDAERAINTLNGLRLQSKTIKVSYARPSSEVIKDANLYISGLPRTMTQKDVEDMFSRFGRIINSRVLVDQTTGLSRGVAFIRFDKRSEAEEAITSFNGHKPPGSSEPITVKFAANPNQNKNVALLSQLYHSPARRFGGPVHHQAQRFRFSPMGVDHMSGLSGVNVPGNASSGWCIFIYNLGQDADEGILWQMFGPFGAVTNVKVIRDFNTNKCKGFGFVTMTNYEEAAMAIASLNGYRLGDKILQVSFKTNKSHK
# [4] = target: Glutathione-S-transferase (Schistosoma japonicum, UniProt Q26513); assay: biotin-GST/anti-GST TR-FRET signal inhibitors, dose response, artefact control for Vif-APOBEC3G degradation inhibitor project, biochemical (AID 1117362); assay type: functional
# Glutathione-S-transferase, sequence (Q26513 whole entry): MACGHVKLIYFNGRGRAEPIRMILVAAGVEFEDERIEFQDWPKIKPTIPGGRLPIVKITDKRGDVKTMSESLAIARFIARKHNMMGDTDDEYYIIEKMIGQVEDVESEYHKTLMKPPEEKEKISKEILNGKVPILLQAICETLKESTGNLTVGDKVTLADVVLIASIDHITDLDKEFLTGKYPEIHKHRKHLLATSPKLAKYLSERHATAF
# [5] = target: T2, Small ubiquitin-related modifier 1 (Homo sapiens, UniProt P63165); assay: inhibitors of SUMO1 partner interactions, dose response, biochemical, FRET (AID 624383); assay type: functional; details: read-out: IC50_Mean
# T2 sequence (P63165 whole entry): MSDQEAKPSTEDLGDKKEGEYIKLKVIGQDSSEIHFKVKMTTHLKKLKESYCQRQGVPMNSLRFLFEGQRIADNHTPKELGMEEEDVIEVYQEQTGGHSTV
# [6] = target: T2, Small ubiquitin-related modifier 1; assay: inhibitors of SUMO1 peptide binding, dose response, biochemical, fluorescence polarization, uHTS hits (AID 624382); assay type: functional; details: read-out: IC50_Mean
# [7] = P. falciparum Dd2 blood-stage growth inhibition, dose response, SYBR Green fluorescence, erythrocytes, dry powder, set 2 (AID 1159574); assay type: functional, cell-based
# [8] = P. falciparum Dd2 growth inhibitors, dose response, SYBR Green, dry powder samples (AID 1159566); assay type: functional, cell-based;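 further: potency for growth inhibition with lower SYBR green DNA signal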
# [9] = P. falciparum ATP4 D1247Y mutant growth inhibitors, dose response, NITD609-resistant line, SYBR Green, dry powder (AID 1159571); assay type: functional, cell-based;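 further: parasites synchronized at ring stage by sorbitol before testing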
# [10] = Plasmodium falciparum Dd2 Sybr green parasite growth Measured in Cell-Based and Microorganism Combination System Using Plate Reader - 2153-01_Inhibitor_Dose_DryPowder_Activity_Set3.; assay type: functional
# [11] = P. falciparum 3D7-ScDHODH growth inhibitors, dose response, SYBR Green, dry powder samples (AID 1159570); assay type: functional, cell-based;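 further: parasite growth measured after 72 hours of compound exposure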
# [12] = HepG2 cell cytotoxicity, dose response, cytotoxicity control, plate reader, dry powder samples (AID 1159569); assay type: functional, cell-based;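 further: inhibitor potency with signal falling toward the positive control level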
# [13] = P. falciparum Dd2 growth inhibitors, dose response, SYBR Green, cherry-picked samples (AID 1159567); assay type: functional, cell-based
# [14] = target: G-protein coupled receptor 183 (Homo sapiens, UniProt P32249); assay: SAR confirmation of small molecule antagonists of the EBI2 receptor via a luminescent beta-arrestin assa.; assay type: functional
# G-protein coupled receptor 183, sequence (P32249 whole entry): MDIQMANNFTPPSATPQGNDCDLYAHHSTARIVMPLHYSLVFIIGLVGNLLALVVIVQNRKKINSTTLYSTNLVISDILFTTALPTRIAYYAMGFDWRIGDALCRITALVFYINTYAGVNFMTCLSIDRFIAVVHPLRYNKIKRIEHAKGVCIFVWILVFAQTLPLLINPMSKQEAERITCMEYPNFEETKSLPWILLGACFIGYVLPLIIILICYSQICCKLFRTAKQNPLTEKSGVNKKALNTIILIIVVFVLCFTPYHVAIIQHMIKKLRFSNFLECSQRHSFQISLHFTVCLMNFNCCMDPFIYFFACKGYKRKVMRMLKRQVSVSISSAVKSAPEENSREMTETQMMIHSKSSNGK
# [15] = target: T3, Low molecular weight phosphotyrosine protein phosphatase (Homo sapiens, UniProt P24666); assay: LMPTP phosphatase inhibitors, dose response, biochemical, OMFP substrate, fluorescence intensity, set 2 (AID 743307); assay type: functional
# T3 sequence (P24666 whole entry): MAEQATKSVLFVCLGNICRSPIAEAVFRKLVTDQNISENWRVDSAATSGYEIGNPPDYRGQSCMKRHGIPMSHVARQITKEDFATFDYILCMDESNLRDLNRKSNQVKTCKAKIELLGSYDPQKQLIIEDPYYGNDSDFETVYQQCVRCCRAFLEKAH
# [16] = target: T3, Low molecular weight phosphotyrosine protein phosphatase; assay: LMPTP phosphatase inhibitors, colorimetric pNPP readout, dose response, orthogonal assay, biochemical, absorbance, pNPP substrate, LMPTP-A isoform, set 2 (AID 743308); assay type: functional
# [17] = P. falciparum Dd2 growth inhibitors, dose response, SYBR Green, dry powder samples, set 9 (AID 1159568); assay type: functional, cell-based
# [18] = Dose-response inhibition of insulin secretion in a rat insulinoma line at 5 mM glucose (AID 1117331); assay type: functional, cell-based; details: INS-1E
# cells = assay type: functional, cell-based; details: INS-1E
# H9c2 = assay: cells; assay type: functional, cell-based; details: Rattus norvegicus, H9c2, Myocardium;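 further: confirmatory concentration-response retest of ultra-high-throughput screening hits for modulation of myocardial damage; cell death induced by hydrogen peroxide oxidative stress; compound pretreatment for 60 min then peroxide exposure for 2 h; potency is for protecting the cells against peroxide damage rather than for killing them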
# [19] = Glucagon-like peptide 1 release potency, NCI-H716 cell line, dose-response, half-maximal inhibitory concentration (AID 1117344); assay type: functional, cell-based
# Bcl-2-related protein A1 [20] = target: T4, Bcl-2-related protein A1 (Mus musculus, UniProt Q07440); assay: Bfl-1 inhibitors blocking BH3 peptide binding, confirmation, biochemical, TR-FRET, mouse Bfl-1 (AID 621);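 further: TR-FRET binding of GST-Bfl-1 to FITC-labelled Bid peptide via terbium antibody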
# T4 sequence (Q07440 whole entry): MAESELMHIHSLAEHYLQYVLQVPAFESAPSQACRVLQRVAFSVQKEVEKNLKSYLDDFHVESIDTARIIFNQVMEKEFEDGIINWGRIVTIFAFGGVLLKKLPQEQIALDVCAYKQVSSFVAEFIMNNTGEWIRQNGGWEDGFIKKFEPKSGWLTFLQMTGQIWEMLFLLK
# [21] = HeLa 2N DNA content increase, dose response, cell-based, IC50 (AID 1117349); assay type: functional
# [22] = HeLa 4N DNA content increase, dose response, cell-based, IC50 (AID 1117351); assay type: functional
# Bcl-2-related protein A1 [23] = target: T4, Bcl-2-related protein A1; assay: Bfl-1 inhibitors, primary screen, biochemical, fluorescence polarization, FITC-Bid, mouse (AID 432)
# [24] = control 3'UTR Renilla luciferase suppression, dose response, counter-screen for Shn3 inhibitor project, cell-based, Clone20-Shn3RL, cherry-picked (AID 624133); assay type: functional
# [25] = Shn3 3'UTR reporter inhibitors, dose response, cell-based, Clone20 osteoblasts, firefly luciferase, cherry-picked (AID 624132); assay type: functional;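 further: firefly luciferase luminescence from reporter carrying the Shn3 3'UTR in osteoblasts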
# [26] = half-maximal inhibitory concentration for glucagon-like peptide-1 release, STC-1 cell line, dose-response (AID 1117345); assay type: functional, cell-based
smiles,measurement,setting,value
COc1ccc(S(=O)(=O)N2CCOCC2)cc1NC(=O)c1cccc(-n2cccc2)c1,IC50,Genome polyprotein,> 49.8 µM (not active)
Nc1ccc(N=Nc2ccccc2)c(N)n1,IC50,[1],> 100 µM (active)
same,AC50,HeLa,36 µM (active)
same,EC50,[2],> 50 µM (active)
CCOC(=O)C(=O)Cc1cccnn1,IC50,[3],4.08 µM (active)
same,IC50,ELAV-like protein 1,4.6 µM (inactive)
same,IC50,[4],> 100 µM (active)
same,IC50,[5],6.34 µM (active)
same,IC50,[6],> 66.6 µM (inactive)
COc1ccc(NC(=O)N2CCCCN3[C@@H](CO)[C@H](c4ccc(C#Cc5ccccc5)cc4)[C@@H]3C2)cc1,AC50,[7],0.036 µM (active)
CCCC(=O)Nc1ccc2c(c1)OC[C@@H](C)N(Cc1cccc(F)c1)C[C@@H](C)[C@H](OC)CN(C)C2=O,AC50,[8],0.884 µM (active)
same,AC50,[9],2.24 µM (active)
same,AC50,[10],1.82 µM (active)
same,AC50,[11],5.76 µM (active)
same,AC50,[12],58.9 µM (active)
same,AC50,[13],1.09 µM (active)
CCCCN1CCN(C(=O)/C=C/c2ccc(Br)cc2)CC1,IC50,[14],0.0021 µM (active)
COc1cccc(-c2cc(NCCCN3CCCCC3)c3ccccc3n2)c1,IC50,[15],2.21 µM (active)
same,IC50,[16],4.89 µM (active)
COc1cccc(-c2cccc(-c3nc(C(=O)NCc4ccc(Oc5ccccc5)cc4)cc4c3[C@@H](CCO)N([S+]([O-])C(C)(C)C)C4)c2)c1 (stereo not given in full),AC50,[8],0.237 µM (active)
same,AC50,[9],0.449 µM (active)
same,AC50,[11],0.826 µM (active)
same,AC50,[13],0.671 µM (active)
same,AC50,[17],0.447 µM (active)
O=c1[nH]c2ccccc2n1CCCN1CCC(n2c(=O)[nH]c3cc(Cl)ccc32)CC1 [DOMPERIDONE],IC50,[18],12.4 µM (inactive)
same,IC50,cells,> 33.3 µM (inactive)
same,IC50,H9c2,> 79 µM (inactive)
CC[C@H](C)C(=O)O[C@H]1C[C@@H](C)C=C2C=C[C@H](C)[C@H](CC[C@@H]3C[C@@H](O)CC(=O)O3)[C@H]21 [LOVASTATIN],IC50,[19],32.9 µM (inactive)
same,IC50,Bcl-2-related protein A1 [20],> 100 µM (not active)
same,IC50,[21],> 10 µM (inactive)
same,IC50,[22],> 10 µM (inactive)
same,IC50,Bcl-2-related protein A1 [23],> 100 µM (not active)
same,AC50,[24],4.74 µM (active)
same,AC50,[25],1.62 µM (active)
same,IC50,[26],> 40 µM (inactive)
